ChEMBL document CHEMBL1136367, “Design and synthesis of novel benzofurans as a new class of antifungal agents targeting fungal N-myristoyltransferase. Part 3” (Bioorg Med Chem Lett, 2003)
pIC50: −log10 of the molar value.

What was measured:
[1] = target: T1, Peptide N-myristoyltransferase (Homo sapiens, UniProt P30419+O60551); assay: In vitro inhibitory activity against human Nmt (HsNmt) using 0.5 uM peptide GNAASAR-R-NH2 and 0.5 uM myristoyl-CoA; type: protein assay
T1 sequence (P30419 whole entry): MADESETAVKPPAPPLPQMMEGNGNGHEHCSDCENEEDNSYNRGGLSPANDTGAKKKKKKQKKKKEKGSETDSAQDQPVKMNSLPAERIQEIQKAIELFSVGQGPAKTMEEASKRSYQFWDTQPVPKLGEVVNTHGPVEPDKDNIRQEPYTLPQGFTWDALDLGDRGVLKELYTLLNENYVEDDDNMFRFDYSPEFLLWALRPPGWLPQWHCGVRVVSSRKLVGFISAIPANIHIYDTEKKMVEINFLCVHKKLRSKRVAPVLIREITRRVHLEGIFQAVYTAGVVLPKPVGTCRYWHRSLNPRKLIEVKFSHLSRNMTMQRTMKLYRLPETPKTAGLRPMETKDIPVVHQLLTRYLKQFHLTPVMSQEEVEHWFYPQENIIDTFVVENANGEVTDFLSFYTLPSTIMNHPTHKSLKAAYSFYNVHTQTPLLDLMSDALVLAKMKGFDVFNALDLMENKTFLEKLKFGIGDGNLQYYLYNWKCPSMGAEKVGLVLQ
T1 sequence (O60551 whole entry): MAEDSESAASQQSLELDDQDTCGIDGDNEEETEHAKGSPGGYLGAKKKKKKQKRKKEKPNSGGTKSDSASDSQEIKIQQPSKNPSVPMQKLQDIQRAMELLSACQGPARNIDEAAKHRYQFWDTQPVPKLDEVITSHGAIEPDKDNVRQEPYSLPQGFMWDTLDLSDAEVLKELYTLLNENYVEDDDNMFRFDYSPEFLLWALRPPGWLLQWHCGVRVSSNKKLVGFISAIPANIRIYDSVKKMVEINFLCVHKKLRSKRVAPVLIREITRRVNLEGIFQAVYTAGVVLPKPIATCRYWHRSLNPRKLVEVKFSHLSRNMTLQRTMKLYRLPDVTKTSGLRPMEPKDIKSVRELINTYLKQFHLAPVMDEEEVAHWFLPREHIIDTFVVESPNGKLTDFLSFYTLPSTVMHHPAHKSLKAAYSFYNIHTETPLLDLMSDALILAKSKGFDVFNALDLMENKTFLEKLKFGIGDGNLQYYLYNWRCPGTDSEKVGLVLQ

Candida albicans [2] = assay: In vitro antifungal activity against Candida albicans (CY1002) in YNBPB medium; type: functional, organism-based
[3] = target: Peptide N-myristoyltransferase (Candida albicans); assay: In vitro inhibitory activity against Candida albicans Nmt (CaNmt) using substrate peptide GLTISKLFR-R-NH2 (0.5 uM) and myristoyl-CoA (0.5 uM)
[4] = Half life period was evaluated in rat plasma; type: ADME, organism-based
[5] = target: Peptide N-myristoyltransferase (Aspergillus fumigatus); assay: In vitro inhibitory activity against Aspergillus fumigatus Nmt (AfNmt) using substrate peptide GLTISKLFR-R-NH2 (0.5 uM) and myristoyl-CoA (0.5 uM)
Candida albicans [6] = assay: In vitro antifungal activity against Candida albicans (CY1002) in 80% calf serum; type: functional, organism-based
[7] = Pharmacokinetic property when administered intravenously in rat at 2 mg/kg; type: ADME, organism-based; design: dose 2 mg/kg, route intravenous; conditions: in vivo, iv
[8] = target: Peptide N-myristoyltransferase (Aspergillus fumigatus); assay: In vitro inhibitory activity against aspergillus fumigatus Nmt (AfNmt) using substrate peptide GLTISKLFR-R-NH2 (0.5 uM) and myristoyl-CoA (0.5 uM)
[9] = target: Peptide N-myristoyltransferase (Candida albicans); assay: In vitro inhibitory activity against candida albicans Nmt (CaNmt) using substrate peptide GLTISKLFR-R-NH2 (0.5 uM) and myristoyl-CoA (0.5 uM)
Rattus norvegicus [10] = species on record: Rattus norvegicus; assay: Antifungal activity determined in rat infected with Candida albicans CY1002.; type: functional
Candida albicans [11] = assay: In vitro antifungal activity against Candida albicans (CY1002) in YNBPB medium in rat; type: functional, organism-based
Rattus norvegicus [12] = species on record: Rattus norvegicus; assay: Antifungal activity determined in rat infected with Candida albicans CY1002; type: functional
[13] = target: Peptide N-myristoyltransferase (Candida albicans); assay: Inhibitory activity against Candida albicans Nmt (CaNmt) using substrate peptide GLTISKLFR-R-NH2 (0.5 uM) and myristoyl-CoA (0.5 uM)
Mus musculus = assay: In vivo efficacy expressed as effective dose against murine systematic candidiasis model; type: functional
[14] = target: Peptide N-myristoyltransferase (Candida albicans); assay: In vitro inhibitory activity against Candida albicans Nmt (CaNmt) using substrate peptide GLTISKLFR-R-NH2 (0.5 uM) and myristoyl-CoA (0.5 uM); remark: listed apart in the source

| SMILES | IC50 [1] | pIC50 (Candida albicans [2]) | IC50 [3] | half-life [4] | IC50 [5] | pIC50 (Candida albicans [6]) | AUC [7] | other results |
| --- | --- | --- | --- | --- | --- | --- | --- | --- |
| Cc1nc(C(=O)c2oc3cccc(OCCCNCc4cccnc4)c3c2C)sc1C | 83000 nM | 7.41 | 0.71 nM | 39 min | 4300 nM | 6.72 | 320 ng·h/mL |  |
| Cc1ccc(C(=O)c2oc3cccc(OCCCNCc4cccnc4)c3c2C)nc1 | > 480000 nM |  |  | 34.8 min |  | 7.09 | 440 ng·h/mL | IC50 [8]: 4100 nM; IC50 [9]: 0.39 nM; ED50 (Rattus norvegicus [10]): 15 mg/kg; pIC50 (Candida albicans [11]): 7.44 |
| C=CCn1c(C(=O)c2oc3cccc(OCCCNCc4cccnc4)c3c2C)nc2ccccc21 | 85000 nM | 7.32 | 0.58 nM | 48 min | 5100 nM | 6.38 | 570 ng·h/mL | ED50 (Rattus norvegicus [12]): 8.7 mg/kg |
| Cc1c(C(=O)c2ccccc2)oc2cccc(OCCCNCc3cccnc3)c12 |  |  |  |  |  |  |  | IC50 [13]: 1200 nM |
| Cc1c(C(O)c2ccccn2)oc2cccc(OCCCNCc3cccnc3)c12 (stereo not given) |  |  |  |  |  |  |  | IC50 [13]: 47 nM |
| Cc1c(C(=O)c2nc3ccccc3n2C)oc2cccc(OCCCNCc3cccnc3)c12 | 94000 nM | 7.46 | 0.4 nM | 35.4 min | 13000 nM | 5.92 | 450 ng·h/mL |  |
| Cc1c(C(=O)c2nccs2)oc2cccc(OCCCNCc3cccnc3)c12 | 25000 nM | 6.27 | 91 nM |  | 63000 nM | 5.08 |  |  |
| Cc1c(COc2ccc(F)c(F)c2F)oc2cccc(OCCCNCc3cccnc3)c12 |  |  |  | 120 min |  |  |  | ED50 (Mus musculus): 7.1 mg/kg |
| Cc1c(C(=O)c2cccnc2)oc2cccc(OCCCNCc3cccnc3)c12 |  |  |  |  |  |  |  | IC50 [13]: 62 nM |
| Cc1c(C(=O)c2ncccc2C(F)(F)F)oc2cccc(OCCCNCc3cccnc3)c12 | > 430000 nM | 6.47 | 43 nM | 33.6 min | 11000 nM | 5.29 | 590 ng·h/mL |  |
| Cc1c(Cc2ccccn2)oc2cccc(OCCCNCc3cccnc3)c12 |  |  |  |  |  |  |  | IC50 [13]: 1900 nM |
| Cc1c(C(=O)c2ccccn2)oc2cccc(OCCCNCc3cccnc3)c12 | 340000 nM | 7.19 |  | 32.4 min | 42000 nM | 6.33 | 410 ng·h/mL | IC50 [14]: 3.5 nM |
| Cc1c(C(=O)c2nccn2C)oc2cccc(OCCCNCc3cccnc3)c12 |  | 6.92 |  | 27 min |  | 5.52 | 530 ng·h/mL |  |
| Cc1c(C(=O)c2ccco2)oc2cccc(OCCCNCc3cccnc3)c12 | 280000 nM | 5.34 | 1400 nM |  | 150000 nM | 4.60 |  |  |
| Cc1csc(C(=O)c2oc3cccc(OCCCNCc4cccnc4)c3c2C)n1 | 130000 nM | 6.85 | 2 nM | 20.4 min | 18000 nM | 6.13 | 470 ng·h/mL |  |
| Cc1c(C(=O)c2nc3ccccc3n2C(C)C)oc2cccc(OCCCNCc3cccnc3)c12 | 99000 nM | 7.72 | 1.3 nM | 51.6 min | 480 nM | 5.57 | 810 ng·h/mL |  |
| OC(Cn1cncn1)(Cn1cncn1)c1ccc(F)cc1F [FLUCONAZOLE] |  |  |  | 240 min |  |  | 19600 ng·h/mL |  |
